Assay results: US9308194B2, “Indanyloxyphenylcyclopropanecarboxylic acids” (Boehringer Ingelheim International GmbH, priority 2013, dated 2016)

Each compound was assayed against human GPR40 receptor (Homo sapiens, UniProt O14842) (assay: IP1 accumulation measurements using the IPOne assay system in 1321N1 cells stably expressing human GPR40 receptor). Details: 1321N1 cells expressing human GPR40, 1 hour stimulation at 37° C., Table 2.
Format: cell-based
Procedure: (§1) IP1 is assayed according to the Manufacturer's description (Cisbio Bioassays, France). In brief, the assay is started by substitution of the culture medium by stimulation buffer (Hepes 10 mM, CaCl2 1 mM, MgCl2 0.5 mM, KCl 4.2 mM, NaCl 146 mM and glucose 5.5 mM, pH 7.4) without LiCl or with […]. Cells are stimulated for 1 hour at 37° C., 5 or 10% CO2 by addition of the compounds that are diluted in stimulation buffer containing LiCl yielding a final LiCl concentration of 50 mM. Assays are stopped by adding HTRF-conjugates (IP1-d2 and Anti-IP1 cryptate Tb) and lysis buffer, provided by the manufacturer. After an incubation time of 1 hour at room temperature plates are measured using an EnVision™, Perkin Elmer. The obtained fluorescence ratios at […] are then used to calculate the pEC50 values using GraphPad Prism 5 (Graphpad Software Inc, USA) or Assay Explorer 3.3 Software (Accelrys, Inc.) by interpolation using an IP1 reference curve and subsequent sigmoidal curve fitting allowing for a variable hill slope.
as §1, with “IP1 accumulation measurements using the IPOne assay system—1321N1 cells stably expressing human GPR40 receptor (Euroscreen, Belgium) are seeded 24 h before the assay in black clear-bottom collagen-coated or white 384-well plates in culture medium containing 10% FCS, 1% Na-Pyruvate and 400 μg/mL G418. IP1 is” for “IP1 is”

Chain of human GPR40 receptor (O14842 whole entry): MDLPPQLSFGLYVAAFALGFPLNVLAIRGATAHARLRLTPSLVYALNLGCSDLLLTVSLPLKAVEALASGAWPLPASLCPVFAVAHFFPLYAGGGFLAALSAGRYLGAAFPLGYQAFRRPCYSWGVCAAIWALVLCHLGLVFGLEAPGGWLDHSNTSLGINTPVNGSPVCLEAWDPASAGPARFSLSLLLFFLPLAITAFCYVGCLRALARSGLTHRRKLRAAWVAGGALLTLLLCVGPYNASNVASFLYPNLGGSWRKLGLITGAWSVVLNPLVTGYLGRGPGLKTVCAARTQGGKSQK

Q: `CS(=O)(=O)CCCOc1ccc(Oc2ccc(F)c3c2CC[C@H]3Oc2ccc([C@H]3C[C@@H]3C(=O)O)cc2)cc1F` [Example 15] was tested. Which EC50 did it give?
A: 8 nM

Q: Which EC50 does the source give for `O=C(O)[C@H]1C[C@@H]1c1ccc(O[C@@H]2CCc3c(Oc4ccc(OCCN5CCOCC5)cc4)ccc(F)c32)cc1` [Example 14] here?
A: 3 nM

Q: Which EC50 does the source give for `CS(=O)(=O)c1ccc(Oc2ccc(F)c3c2CC[C@H]3Oc2ccc([C@H]3C[C@@H]3C(=O)O)cc2)cc1` [Example 38] here?
A: 27 nM

Q: `CC(C)(O)CCOc1ccc(Oc2ccc(F)c3c2CC[C@H]3Oc2ccc([C@H]3C[C@@H]3C(=O)O)cc2)cc1` [Example 4] was tested. Which EC50 did it give?
A: 5 nM

Q: `Cc1cc(C#N)cc(C)c1S(=O)(=O)c1cccc2c1CC[C@H]2Oc1ccc([C@H]2C[C@@H]2C(=O)O)cc1` [Example 41] was tested. Which EC50 did it give?
A: 12 nM

Q: Which EC50 does the source give for `O=C(O)C1CC1c1ccc(O[C@@H]2CCc3c2cccc3S(=O)(=O)c2ccccc2)cc1` (stereo partly shown) [Example 43] here?
A: 37 nM

Q: How did the EC50 turn out when `CNC(=O)c1ccc(Oc2ccc(F)c3c2CC[C@H]3Oc2ccc([C@H]3C[C@@H]3C(=O)O)cc2)cc1` [Example 17] was run?
A: 9 nM

Q: Which EC50 does the source give for `CC(C)(O)CNC(=O)c1ccc(Oc2ccc(F)c3c2CC[C@H]3Oc2ccc([C@H]3C[C@@H]3C(=O)O)cc2)cc1` [Example 34] here?
A: 16 nM

Q: With `O=C(O)c1ccc(Oc2ccc(F)c3c2CC[C@H]3Oc2ccc([C@H]3C[C@@H]3C(=O)O)cc2)cc1` [Example 16] as the compound, how does the EC50 read?
A: 92 nM

Q: With `N#Cc1ccc(Oc2ccc(F)c3c2CC[C@H]3Oc2ccc([C@H]3C[C@@H]3C(=O)O)cc2)c(F)c1` [Example 26] as the compound, how does the EC50 read?
A: 19 nM

Q: How did the EC50 turn out when `O=C(O)[C@H]1C[C@@H]1c1ccc(O[C@@H]2CCc3c(Oc4ccc(O)cc4)ccc(F)c32)cc1` [Example 2] was run?
A: 6 nM

Q: Which EC50 does the source give for `Cc1noc(-c2ccc(Oc3ccc(F)c4c3CC[C@H]4Oc3ccc([C@H]4C[C@@H]4C(=O)O)cc3)cc2)n1` [Example 32] here?
A: 4 nM

Q: `Cn1nnc(-c2ccc(Oc3ccc(F)c4c3CC[C@H]4Oc3ccc([C@H]4C[C@@H]4C(=O)O)cc3)cc2)n1` [Example 29] was tested. Which EC50 did it give?
A: 3 nM

Q: `COCCOc1ccc(Oc2ccc(F)c3c2CC[C@H]3Oc2ccc([C@H]3C[C@@H]3C(=O)O)cc2)cc1F` [Example 13] was tested. Which EC50 did it give?
A: 8 nM

Q: How did the EC50 turn out when `Cc1ccc2cc(Oc3ccc(F)c4c3CC[C@H]4Oc3ccc([C@H]4C[C@@H]4C(=O)O)cc3)ccc2n1` [Example 39] was run?
A: 6 nM

Q: For `CN(CCO)C(=O)c1ccc(Oc2ccc(F)c3c2CC[C@H]3Oc2ccc([C@H]3C[C@@H]3C(=O)O)cc2)cc1` [Example 19], which EC50 is on record?
A: 48 nM

Q: Which EC50 does the source give for `Cc1nc(-c2ccc(Oc3ccc(F)c4c3CC[C@H]4Oc3ccc([C@H]4C[C@@H]4C(=O)O)cc3)cc2)nn1C` [Example 33] here?
A: 5 nM

Q: For `COCCOc1ccc(Oc2ccc(F)c3c2CC[C@H]3Oc2ccc([C@H]3C[C@@H]3C(=O)O)cc2)cc1` [Example 8], which EC50 is on record?
A: 5 nM

Q: For `Cc1cccc(C)c1S(=O)(=O)c1cccc2c1CC[C@H]2Oc1ccc([C@H]2C[C@@H]2C(=O)O)cc1` [Example 42], which EC50 is on record?
A: 4 nM

Q: `O=C(O)C1CC1c1ccc(O[C@@H]2CCc3c2cccc3[S+]([O-])c2ccccc2)cc1` (stereo partly shown) [Example 44] was tested. Which EC50 did it give?
A: 197 nM

Q: `N#Cc1ccc(Oc2ccc(F)c3c2CC[C@H]3Oc2ccc([C@H]3C[C@@H]3C(=O)O)cc2)cc1` [Example 24] was tested. Which EC50 did it give?
A: 2 nM

Q: For `N#Cc1ccc2c(c1Cc1ccc(Cl)nc1)CC[C@H]2Oc1ccc([C@H]2C[C@@H]2C(=O)O)cc1` [Example 40, (1S,2S)-2-{4-[(R)-4-(6-Chloro-pyridin-3-ylmethyl)-5-cyano-indan-1-yloxy]-phenyl}-cyclopropanecarboxylic acid], which EC50 is on record?
A: 45 nM

Q: For `O=C(O)[C@H]1C[C@@H]1c1ccc(O[C@@H]2CCc3c(Oc4ccc(C(=O)N5CCOCC5)cc4)ccc(F)c32)cc1` [Example 22], which EC50 is on record?
A: 27 nM

Q: `O=C(O)[C@H]1C[C@@H]1c1ccc(O[C@@H]2CCc3c(Oc4ccc(OC5CCOCC5)cc4)ccc(F)c32)cc1` [Example 6] was tested. Which EC50 did it give?
A: 2 nM

Q: For `Cn1ncc2ccc(Oc3ccc(F)c4c3CC[C@H]4Oc3ccc([C@H]4C[C@@H]4C(=O)O)cc3)cc21` [Example 36], which EC50 is on record?
A: 2 nM

Q: Which EC50 does the source give for `O=C(O)[C@H]1C[C@@H]1c1ccc(O[C@@H]2CCc3c(Oc4ccc(OCC5(O)CCOCC5)cc4)ccc(F)c32)cc1` [Example 5] here?
A: 7 nM

Q: For `CC(C)(O)CCOc1ccc(Oc2ccc(F)c3c2CC[C@H]3Oc2ccc([C@H]3C[C@@H]3C(=O)O)cc2)cc1F` [Example 11], which EC50 is on record?
A: 3 nM

Q: Which EC50 does the source give for `Cc1cc(C#N)ccc1Oc1ccc(F)c2c1CC[C@H]2Oc1ccc([C@H]2C[C@@H]2C(=O)O)cc1` [Example 25] here?
A: 2 nM

Q: `CS(=O)(=O)CCCOc1ccc(Oc2ccc(F)c3c2CC[C@H]3Oc2ccc([C@H]3C[C@@H]3C(=O)O)cc2)cc1` [Example 7] was tested. Which EC50 did it give?
A: 4 nM

Q: `COc1ccc(Cc2c(C#N)ccc3c2CC[C@H]3Oc2ccc([C@H]3C[C@@H]3C(=O)O)cc2)cn1` [Example 46, (1S,2S)-2-{4-[(R)-5-Cyano-4-(6-methoxy-pyridin-3-ylmethyl)-indan-1-yloxy]-phenyl}-cyclopropanecarboxylic acid] was tested. Which EC50 did it give?
A: 8 nM

Q: For `O=C(NCC1CC1)c1ccc(Oc2ccc(F)c3c2CC[C@H]3Oc2ccc([C@H]3C[C@@H]3C(=O)O)cc2)cc1` [Example 18], which EC50 is on record?
A: 6 nM

Q: Which EC50 does the source give for `Cc1nc(-c2ccc(Oc3ccc(F)c4c3CC[C@H]4Oc3ccc([C@H]4C[C@@H]4C(=O)O)cc3)cc2)no1` [Example 35] here?
A: 3 nM

Q: With `O=C(O)[C@H]1C[C@@H]1c1ccc(O[C@@H]2CCc3c(Oc4ccc(OCc5ccccc5)cc4)ccc(F)c32)cc1` [Example 1] as the compound, how does the EC50 read?
A: 6 nM

Q: `CCNC(=O)c1ccc(Oc2ccc(F)c3c2CC[C@H]3Oc2ccc([C@H]3C[C@@H]3C(=O)O)cc2)cc1` [Example 23] was tested. Which EC50 did it give?
A: 12 nM

Q: With `O=C(O)[C@H]1C[C@@H]1c1ccc(O[C@@H]2CCc3c(Oc4ccc(OCCO)cc4)ccc(F)c32)cc1` [Example 10] as the compound, how does the EC50 read?
A: 7 nM

Q: For `COc1cc(Oc2ccc(F)c3c2CC[C@H]3Oc2ccc([C@H]3C[C@@H]3C(=O)O)cc2)ccc1C#N` [Example 27], which EC50 is on record?
A: 2 nM

Q: How did the EC50 turn out when `O=C(O)[C@H]1C[C@@H]1c1ccc(O[C@@H]2CCc3c(Oc4ccccc4)ccc(F)c32)cc1` [Example 45, (1S,2S)-2-[4-((R)-7-Fluoro-4-phenoxy-indan-1-yloxy)-phenyl]-cyclopropanecarboxylic acid] was run?
A: 2 nM

Q: `N#Cc1ccc(Oc2c(F)cc(F)c3c2CC[C@H]3Oc2ccc([C@H]3C[C@@H]3C(=O)O)cc2)cc1` [Example 28] was tested. Which EC50 did it give?
A: 1 nM

Q: Which EC50 does the source give for `CC(C)c1ccn(-c2ccc(Oc3ccc(F)c4c3CC[C@H]4Oc3ccc([C@H]4C[C@@H]4C(=O)O)cc3)cc2)n1` [Example 30] here?
A: 8 nM

Q: `Cc1nc2ccc(Oc3ccc(F)c4c3CC[C@H]4Oc3ccc([C@H]4C[C@@H]4C(=O)O)cc3)cc2s1` [Example 37] was tested. Which EC50 did it give?
A: 2 nM

Q: How did the EC50 turn out when `CC(C)(O)COc1ccc(Oc2ccc(F)c3c2CC[C@H]3Oc2ccc([C@H]3C[C@@H]3C(=O)O)cc2)cc1` [Example 9] was run?
A: 5 nM

Q: Which EC50 does the source give for `Cc1cc(Oc2ccc(F)c3c2CC[C@H]3Oc2ccc([C@H]3C[C@@H]3C(=O)O)cc2)cc(C)c1OCCC(C)(C)O` [Example 31] here?
A: 9 nM

Q: Which EC50 does the source give for `O=C(NC1CCOCC1)c1ccc(Oc2ccc(F)c3c2CC[C@H]3Oc2ccc([C@H]3C[C@@H]3C(=O)O)cc2)cc1` [Example 21] here?
A: 3 nM

Q: With `O=C(O)[C@H]1C[C@@H]1c1ccc(O[C@@H]2CCc3c(Oc4ccc(OC5CCOCC5)c(F)c4)ccc(F)c32)cc1` [Example 12] as the compound, how does the EC50 read?
A: 4 nM

Q: How did the EC50 turn out when `O=C(O)[C@H]1C[C@@H]1c1ccc(O[C@@H]2CCc3c(Oc4ccc(OCc5ccccc5)c(F)c4)ccc(F)c32)cc1` [Example 3] was run?
A: 5 nM

Q: How did the EC50 turn out when `CN(C)C(=O)c1ccc(Oc2ccc(F)c3c2CC[C@H]3Oc2ccc([C@H]3C[C@@H]3C(=O)O)cc2)cc1` [Example 20] was run?
A: 11 nM
